Consider two compounds from patent US20220192978A1, “Pharmaceutical Inhalation Aerosol and Preparation Method Therefor” (CF PharmTech, Inc., priority 2019, published 2022).

A short description of data set [1]: Anderson cascade impactor (ACI) test of the inhalation aerosol (deposition rate per plate, FPF). The format is physicochemical. As to conditions: for Fine Particle Fraction (FPF) (lung): in single or compound preparations (MDI); for FPF of glycopyrronium bromide (%) / FPF of indacaterol maleate (%): inhalation aerosol prepared directly from micronized powder(s), no co-micronization; for Fine Particle Fraction (in words): prepared as a suspension-type inhalation aerosol. Here is the method: Prescription amounts of glycopyrronium bromide and indacaterol maleate were added to an aluminum can, valve-sealed, and filled with propellant, HFA-134a. After being inverted for 2 days, it was tested according to 0951, volume IV general rules of the Pharmacopoeia of the People's Republic of China 2015 Edition. The sum of the deposition from the stage plate 3 to the filter membrane is the Fine Particle Dose (FPD). The FPD (less than 5 μm) divided by the total amount collected by the Anderson cascade impactor (Total Dose, TD) is the Fine Particle Fraction (FPF).
Micronized powders were precisely weighed and placed in a 14 mL fluorocarbon polymerization (FCP)-coated aluminum can, valve-sealed, filled, ultrasonicated for 10 minutes, and then kept for 2 days for Anderson cascade impactor testing. It was tested according to 0951 device 2, volume IV general rules of the Pharmacopoeia of the People's Republic of China 2015 Edition. The relative humidity of the test environment should be 45% to 55%. The flow rate was adjusted to 28.3±1.5 liters per minute. Take 1 bottle of this product, shake it sufficiently, and discard 4 sprays. Wipe the mouthpiece with ethanol, dry it sufficiently, turn on the vacuum pump, shake for 5 seconds (note that shake for 5 seconds before each spray and the interval between sprays is 30 seconds), insert the product into the adapter, and spray once immediately. After removing the aluminum can and the driver, shake for 5 seconds, reinsert into the adapter, and immediately spray the second time. Repeat this process until the completion of 10 sprays. After the last spray, wait 1 minute, then remove the aluminum can and driver, turn off the vacuum pump, and remove the device. The various plates of the Anderson impactor were washed with a specific ratio of methanol aqueous solution, and the content of the drugs deposited on each plate was determined by HPLC.

A short description of data set [2]: particle size test of micronized powder (D10, D50, D90, SPAN). It is filed as physicochemical. The following applies: fine powder used for direct mixing. The text has this:
In the invention, D90 is described as the volume of particles smaller than a certain particle size (x) accounts for 90% of the total volume of the particles, D50 is described as the volume of particles smaller than a certain particle size (x) accounts for 50% of the total volume of the particles, and D10 is described as the volume of particles smaller than a certain particle size (x) accounts for 10% of the total volume of the particles.
The pressure of the jet mill was decreased and the above steps were repeated, in order to investigate the effect of pressure (10 bar, 8 bar, 4 bar, 3 bar, 2 bar) on the particle size of the glycopyrronium bromide/indacaterol maleate mixture, the Fine Particle Fraction of glycopyrronium bromide and the degree of co-deposition of the two active ingredients.

Where a name gives a salt, the structure may show the parent alone.

Take `C[N+]1(C)CCC(OC(=O)C(O)(c2ccccc2)C2CCCC2)C1` (stereo not shown) [glycopyrronium bromide]: in data set [1], the “Fine Particle Fraction (FPF) (lung)” value was 15-20%, the “FPF of glycopyrronium bromide (%)” value turned out to be 25.68% and the “Fine Particle Fraction (in words)” value is reported as “low”. The “FPF of glycopyrronium bromide (%)” value in data set [1] (listed as glycopyrronium bromide fine powder) is recorded as 24%. The D90 in data set [2] is reported as 3.43 μm.
`CCc1cc2c(cc1CC)CC(NC[C@H](O)c1ccc(O)c3[nH]c(=O)ccc13)C2` [indacaterol maleate]: in data set [1], the “Fine Particle Fraction (FPF) (lung)” value is 40-50%, the “FPF of indacaterol maleate (%)” value stood at 45.66% and the “Fine Particle Fraction (in words)” value is on record as “high”. The “FPF of indacaterol maleate (%)” value in data set [1] (listed as indacaterol fine powder) turned out to be 45%. The D90 in data set [2] is reported as 3.84 μm.
